Read-outs that look alike come from different tables or passages of the source.
How the values were obtained:
focal ischemia = settings: rat MCAO, cited from earlier work
global ischemia = settings: rat common carotid arteries model; cited from earlier work
AMPA receptor = test: Inhibition of Ca2+ influx into cortical cells stimulated with AMPA; format: cell-based; settings: cortical cells stimulated with 50 μM AMPA; fluorescence readout
Description: Three of the antagonists disclosed herein were tested, in vitro, for inhibition of Ca^2+ influx into cortical cells stimulated with AMPA. They are 1-(4-Aminophenyl)-3,5-dihydro-4-methyl-3-acetyl-7-methoxy-5H-2,3-benzodiazepine (8) (SYM 2267), 1-(4-Aminophenyl)-3,5-dihydro-4-methyl-3-acetyl-8-methoxy-5H-2,3-benzodiazepine (21) (SYM 2268), and 1-(4-Aminophenyl)-3,5-dihydro-4-methyl-3-acetyl-7-amino-8-methoxy-5H-2,3-benzodiazepine (27) (SYM 2269), respectively. The in vitro test measures inhibition of Ca^2+ influx into cortical cells stimulated with 50 µM AMPA by the test compounds. The rationale underlying this assay is that stimulation of the cortical cells with AMPA activates AMPA receptors causing Ca^2+ influx with an increase in intracellular Ca^2+ which is then detected by measuring an increase in fluorescence. The Ca^2+ increase comes mostly from extracellular (influx of Ca^2+ through the channel into the cell), but could also come from intracellular sources (release of Ca^2+ from storage). The inhibition of the AMPA receptor function is detected by a decrease in the level of intracellular Ca^2+ and a decrease in fluorescence.

MES seizures = test: Maximal electro shock (MES) seizure model; format: in vivo; settings: rats
Description: The extent of protection by a test compound in a seizure model is tested as described by Rogawski et al. (Epilepsy Research, 15:179-184, 1993). Male NIH Swiss mice (25-30 g) are injected ip with the test drug. The mice are subjected to a 0.2 sec, 60 Hz, 50 mA electrical stimulus delivered with corneal electrodes wetted with 0.9% saline at 15-30 min post dosing. Animals failing to show tonic hind limb extension are scored as protected. Compounds may be selected which are active in this model.
SYM 2267 was evaluated for in vivo anticonvulsant activity in the maximal electro shock (MES) model in rats.

Rotorod test = format: in vivo; settings: rats, PO

In the case of `CC1=NN=C(c2ccc(N)cc2)c2cc3c(cc2C1)OCO3` [GYKI 52466], the “Reduction of cortical infarct volume” value (focal ischemia; dosing delayed for one hour) is listed as 48%, the “Reduction of cortical infarct volume” value (focal ischemia; given continuously for 2 hours just after occlusion) is listed as 68% and the “Efficacy in global ischemia compared with NBQX” value (global ischemia) is listed as “as effective as the glutamate site competitive antagonist NBQX”.

For `COc1ccc2c(c1)CC(C)N(C(C)=O)N=C2c1ccc(N)cc1` (stereo not drawn) [SYM 2267, 1-(4-Aminophenyl)-3,5-dihydro-4-methyl-3-acetyl-7-methoxy-5H-2,3-benzodiazepine], the IC50 (AMPA receptor) was 26.1 µM, the ED50 (MES seizures; Rattus norvegicus, MES model, read-out: MES effective dosage (ED50)) was 8.4 mg/kg and the “Protection from MES seizures” value (MES seizures; orally (PO), 30 mg/kg) was “fully protected”. The “Sedative or toxic side effects in the rotorod test” value (Rotorod test) was “No sedative or toxic side effects were observed”.

`COc1ccc2c(c1)C(c1ccc(N)cc1)=NN(C(C)=O)C(C)C2` (stereo not drawn) [SYM 2268, 1-(4-Aminophenyl)-3,5-dihydro-4-methyl-3-acetyl-8-methoxy-5H-2,3-benzodiazepine] gave an IC50 (AMPA receptor) of 16.6 µM.

Molecule `COc1cc2c(cc1N)CC(C)N(C(C)=O)N=C2c1ccc(N)cc1` (stereo not drawn) [SYM 2269, 1-(4-Aminophenyl)-3,5-dihydro-4-methyl-3-acetyl-7-amino-8-methoxy-5H-2,3-benzodiazepine] has an IC50 (AMPA receptor) of 7.3 µM.

— patent publication US6887867B2, “5H-2,3-benzodiazepine antagonists of excitatory amino acid receptors” (Transgenomic, Inc., priority 2000, dated 2005)
